According to publication PMC3997483, “Aminostyrylbenzofuran Directly Reduces Oligomeric Amyloid-β and Reverses Cognitive Deficits in Alzheimer Transgenic Mice” (PLoS ONE, 2014):

What was measured:
APP/PS1 TG mice [1] = experiment: Y-maze, prophylactic trial; assay type: in vivo, mouse; conditions: PO 100 mg/kg/day, 5 to 12 months of age
APP/PS1 TG mice [2] = experiment: Morris water maze, prophylactic trial; assay type: in vivo, mouse; conditions: TG mice
Description: Behavioral tests were performed in the following sequence: Y-maze (day 1), Morris water maze (day 4 to 12) and contextual fear conditioning (day 26 to 27). To reduce stress, contextual fear conditioning was carried out 2 weeks after the Morris water maze task. In the therapeutic trial, APP/PS1 TG mice were treated with KMS88009 (30 mg/kg/day) for 3 months from 9 to 12 months of age. Y-maze tests short-term spatial working memory. Y-maze is a 3-armed (40 L×10 W×12 H cm) horizontal maze in which the arms are symmetrically disposed at 120° angles from each other. Mice were placed at the end of one arm and allowed to move freely through the maze during a 5-min session. Arm entry was considered completed when the hind paws of the mouse were completely placed in the arm. Alternation was defined as successive entries into the 3 arms on overlapping triplet sets. The series of arm entries was recorded via video recorders. The percentage of alternation was defined according to the following equation: % alternation = [(number of alternations)/(total arm entries - 2)] ×100. Mice performing fewer than 7 alternations in 5 min were excluded from the subsequent analysis to accurately determine alternation scores. Morris water maze was used to measure spatial learning and memory. A stainless pool apparatus with a diameter of 120 cm was used. A clear escape platform (circle, 12×12 cm) was located 1.0 cm below (hidden) the water surface containing white nontoxic paint. The temperature of water was kept constant throughout the experiment (21±1°C). The visual cues, for mice to recognize the environment and direction, are placed on the walls around the pool. The training was consisted of 8 consecutive days of testing with 4 trials per day. When a mouse was located on the escape platform, it was permitted to remain on the platform for 15 sec. […] Then the subject was returned to its home cage and allowed to dry up after each trial. The platform location was kept constant and the starting position was varied. Each mouse was placed in the water with their nose pointing toward the wall at one of the starting points in a random manner. During each trial session, the time taken to find the hidden platform (latency) was recorded using a video camera-based Ethovision System (Nodulus, Nertherlands). On the 9th day, each mouse was tested on a probe trial. The platform was removed from pool and the mice were allowed to swim for 60 sec to search. Swimming time was recorded during mice were in the pool quadrant where the platform had been previously located. Mice, which float or jump from platform, were eliminated from the experiment since these responses may be incompatible with the behaviors needed to locate and learn the platform position. In addition, animals with difficulty in swimming were also excluded from this study. Fear conditioning task was measured to test the ability to learn and remember an association between an aversive experience and environmental cues. Contextual fear conditioning evaluation was performed using a fear-conditioning chamber (Courlbourn, USA) equipped with a computer-controlled fear conditioning system (FreActimetrics, USA). On the first day of training, each mouse was placed in the conditioning chamber and left to adjust for 2 min. Fear conditioning test was performed with conditional stimulus (CS) of sound (75 dB) for 20 sec followed by unconditional stimulus (US) of electric foot-shock (0.5 mA) for the last 2 sec in CS. After 1 min, the subject was returned to its home cage. After 24 hr, retention test was performed. […] Freezing response was measured without CS or US. Freezing behavior was defined as the complete absence of any movement except for respiration and heartbeat. Animals with no response to the foot-shock during training were excluded from the analysis. Data analyses including recordings of all behavioral responses were performed by keeping research colleagues blind.

in vitro = conditions: monkey, microsomes

| Structure (SMILES) | frequency of spontaneous alternation (Y-maze) (APP/PS1 TG mice [1]) [%] | Latency (hidden platform) (APP/PS1 TG mice [2]; Day 1, dose group +++ (100 mg/kg/day)) [s] | Latency (hidden platform) (APP/PS1 TG mice [2]; Day 2, dose group +++ (100 mg/kg/day)) [s] | Latency (hidden platform) (APP/PS1 TG mice [2]; Day 3, dose group +++ (100 mg/kg/day)) [s] | Latency (hidden platform) (APP/PS1 TG mice [2]; Day 4, dose group +++ (100 mg/kg/day)) [s] | Latency (hidden platform) (APP/PS1 TG mice [2]; Day 5, dose group +++ (100 mg/kg/day)) [s] | Latency (hidden platform) (APP/PS1 TG mice [2]; Day 6, dose group +++ (100 mg/kg/day)) [s] | Latency (hidden platform) (APP/PS1 TG mice [2]; Day 7, dose group +++ (100 mg/kg/day)) [s] | Latency (hidden platform) (APP/PS1 TG mice [2]; Day 8, dose group +++ (100 mg/kg/day)) [s] | half-life at 5 µM (in vitro) [min] | remaining at 1 h, 5 µM (in vitro) [%] |
| --- | --- | --- | --- | --- | --- | --- | --- | --- | --- | --- | --- |
| O[C@H]1[C@H](O)[C@@H](O)[C@H](O)[C@@H](O)[C@@H]1O [Scyllo-inositol, reference compound] | 70.0 | 49.1 ± 2.4 | 43.1 ± 2.6 | 44.7 ± 4.2 | 37.5 ± 4.0 | 44.6 ± 3.3 | 39.0 ± 4.3 | 38.4 ± 4.4 | 37.2 ± 4.3 |  |  |
| C[C@]12CC[C@H]3[C@@H](CCC4=CC(=O)CC[C@@]43C)[C@@H]1CC[C@@H]2O [Testosterone, reference compound] |  |  |  |  |  |  |  |  |  | 23.4 ± 0.5 | 16 ± 0.4 |
